From ChEMBL document CHEMBL1124898, “Novel agents effective against solid tumors: the diarylsulfonylureas. Synthesis, activities, and analysis of quantitative structure-activity relationships” (J Med Chem, 1990)
Converted amounts (≈) assume the structure as drawn.

Legend:
CCRF-CEM = assay: Concentration required to inhibit growth of CCRF-CEM cells in culture for 72 hr to 50% of control growth; format: functional, cell-based; conditions: Homo sapiens
[1] = Antitumor activity in vivo against the 6C3HED lymphosarcoma, dosed for 8 days at 300 mg/kg; conditions: Mus musculus, 192 h

SMILES | IC50 (CCRF-CEM) | inhibition in vivo at 300 mg/kg [1]
Cc1ccc(S(=O)(=O)NC(=O)Nc2ccc3c(c2)C(=O)CC3)cc1 | > 20 µg/mL | 0%
COc1ccc(S(=O)(=O)NC(=O)Nc2ccc(Cl)cc2)cc1OC | > 20 µg/mL | 43%
Cc1ccc(NC(=O)NS(=O)(=O)c2ccc(C)cc2)cc1 | 11.6 µg/mL (≈ 38.1 µM) | 91%
COc1ccc(NC(=O)NS(=O)(=O)c2ccc(C)cc2)cc1OC | > 20 µg/mL | 12%
O=C(Nc1ccc(F)cc1)NS(=O)(=O)c1ccc(Cl)cc1 | 14.5 µg/mL (≈ 44.1 µM) | 74%
Cc1ccc(S(=O)(=O)NC(=O)NCCc2ccccc2)cc1 | > 20 µg/mL | 24%
Cc1ccc(S(=O)(=O)NC(=O)Nc2cccc(Cl)c2Cl)cc1 | > 20 µg/mL | 37%
Cc1ccc(S(=O)(=O)NC(=O)Nc2cc(C)cc(C)c2)cc1 | > 20 µg/mL | 9%
Cc1ccc(S(=O)(=O)NC(=O)Nc2cccc(C)c2C)cc1 |  | 8%
O=C(Nc1ccc(Cl)cc1)NS(=O)(=O)c1cccnc1 | 7.1 µg/mL (≈ 22.8 µM) | 3%
O=C(Nc1ccc(Cl)cc1)NS(=O)(=O)c1ccc(CO)cc1 | > 20 µg/mL | 15%
Cc1ccc(S(=O)(=O)NC(=O)Nc2ccc(Cl)cn2)cc1 | > 20 µg/mL | 43%
Cc1ccc(S(=O)(=O)NC(=O)Nc2ccc(N(C)C)cc2)cc1 | > 20 µg/mL | 51%
Cc1ccc(S(=O)(=O)NC(=O)Nc2ccc(Cl)c(Cl)c2)cc1 | 5.8 µg/mL (≈ 16.1 µM) | 100%
O=C(Nc1ccc(C(F)(F)F)cc1)NS(=O)(=O)c1ccc2c(c1)CCC2 | 12 µg/mL (≈ 31.2 µM) | 71%
CCOc1ccc(S(=O)(=O)NC(=O)Nc2ccc(Cl)cc2)cc1 | 13 µg/mL (≈ 36.6 µM) | 100%
Cc1ccc(S(=O)(=O)NC(=O)Nc2ccc(F)cc2)cc1 | 17.4 µg/mL (≈ 56.4 µM) | 95%
O=C(Nc1ccc(Cl)cc1)NS(=O)(=O)c1ccc2c(c1)CCO2 | 16.1 µg/mL (≈ 45.6 µM) | 94%
Cc1ccc(S(=O)(=O)NC(=O)NCc2ccccc2)cc1 | > 20 µg/mL | 0%
Cc1ccc(S(=O)(=O)NC(=O)Nc2cc(Cl)c(Cl)cc2C)cc1 | 16 µg/mL (≈ 42.9 µM) | 15%
Cc1ccc(S(=O)(=O)NC(=O)Nc2ccc3c(c2)CCC3)cc1 | 15.7 µg/mL (≈ 47.5 µM) | 5%

SMILES | IC50 (CCRF-CEM) | inhibition in vivo at 300 mg/kg [1]
Cc1ccc(S(=O)(=O)NC(=O)Nc2ccc(OCC(F)(F)F)cc2)cc1 | > 20 µg/mL | 30%
Cc1ccc(S(=O)(=O)NC(=O)Nc2cccc(C)c2)cc1 | > 20 µg/mL | 0%
Cc1ccc(S(=O)(=O)NC(=O)Nc2ccc([N+](=O)[O-])cc2)cc1 | 7.4 µg/mL (≈ 22.1 µM) | 34%
Cc1ccc(S(=O)(=O)NC(=O)Nc2cccc3ccccc23)cc1 | > 20 µg/mL | 0%
Cc1ccc(S(=O)(=O)NC(=O)Nc2ncccn2)cc1 | > 20 µg/mL | 0%
Cc1ccc(S(=O)(=O)NC(=O)Nc2ccccn2)cc1 | > 20 µg/mL | 2%
Cc1ccc(S(=O)(=O)NC(=O)Nc2ccccc2C)cc1 | > 20 µg/mL | 32%
Cc1ccc(S(=O)(=O)NC(=O)Nc2ccc3[nH]ncc3c2)cc1 | > 20 µg/mL | 0%
Cc1ccc(S(=O)(=O)NC(=O)Nc2cc(F)cc(F)c2)cc1 | > 20 µg/mL | 52%
O=C(Nc1ccc(Cl)cc1)NS(=O)(=O)c1ccc(Oc2ccccc2)cc1 | 19.7 µg/mL (≈ 48.9 µM) | 32%
CC(C)(C)c1ccc(S(=O)(=O)NC(=O)Nc2ccc(Cl)cc2)cc1 | 13.5 µg/mL (≈ 36.8 µM) | 84%
COc1ccc(NC(=O)NS(=O)(=O)c2ccc(C)cc2)cc1 | > 20 µg/mL | 6%
CSc1ccc(NC(=O)NS(=O)(=O)c2ccc(C)cc2)cc1 | > 20 µg/mL | 17%
Cc1ccc(S(=O)(=O)NC(=O)Nc2ccc(F)c(F)c2)cc1 | 12.8 µg/mL (≈ 39.2 µM) | 60%
Cc1ccc(S(=O)(=O)NC(=O)Nc2ccc(Cl)cc2)cc1C | 13.6 µg/mL (≈ 40.1 µM) | 100%
Cc1ccc(S(=O)(=O)NC(=O)NCc2ccc(Cl)cc2)cc1 | > 20 µg/mL | 14%
CC(=O)c1ccc(S(=O)(=O)NC(=O)Nc2ccc(Cl)cc2)cc1 | 16.9 µg/mL (≈ 47.9 µM) | 55%
Cc1ccc(S(=O)(=O)NC(=O)Nc2ccc(O)cc2)cc1 | > 20 µg/mL | 10%
Cc1ccc(S(=O)(=O)NC(=O)Nc2ccc(S(C)(=O)=O)cc2)cc1 | > 20 µg/mL | 7%
CSc1cccc(NC(=O)NS(=O)(=O)c2ccc(C)cc2)c1 | > 20 µg/mL | 20%
CCCOc1cccc(NC(=O)NS(=O)(=O)c2ccc(C)cc2)c1 | > 20 µg/mL | 0%

SMILES | IC50 (CCRF-CEM) | inhibition in vivo at 300 mg/kg [1]
O=C(Nc1ccc(Br)cc1)NS(=O)(=O)c1ccc2c(c1)CCC2 | 17.6 µg/mL (≈ 44.5 µM) | 92%
Cc1ccc(S(=O)(=O)NC(=O)Nc2ccc3ccccc3c2)cc1 | 28 µg/mL (≈ 82.3 µM) | 5%
Nc1ccc(S(=O)(=O)NC(=O)Nc2ccc(Cl)cc2)cc1 | 13.9 µg/mL (≈ 42.7 µM) | 43%
Cc1ccc(S(=O)(=O)NC(=O)Nc2cc(C(C)(C)C)on2)cc1 |  | 5%
O=C(Nc1ccc(Cl)cc1)NS(=O)(=O)c1cccc2ccccc12 | 15.2 µg/mL (≈ 42.1 µM) | 29%
O=C(Nc1ccc2c(c1)OCO2)NS(=O)(=O)c1ccc(Cl)cc1 | > 20 µg/mL | 28%
Cc1ccc(S(=O)(=O)NC(=O)Nc2ccccc2Cl)cc1 | > 20 µg/mL | 1%
Cc1ccc(S(=O)(=O)NC(=O)Nc2ccc(C#N)cc2)cc1 | > 20 µg/mL | 31%
Cc1ccc(S(=O)(=O)NC(=O)Nc2cccnc2)cc1 | > 20 µg/mL | 1%
Cc1ccc(S(=O)(=O)NC(=O)Nc2ccc(Oc3ccccc3)cc2)cc1 | > 20 µg/mL | 0%
Cc1ccc(S(=O)(=O)NC(=O)Nc2ccc(Cl)c(C(F)(F)F)c2)cc1 | 18.6 µg/mL (≈ 47.4 µM) | 18%
Cc1ccc(S(=O)(=O)NC(=O)Nc2ccc(Cl)c(C)c2)cc1 | 7.3 µg/mL (≈ 21.5 µM) | 85%
COc1cccc(S(=O)(=O)NC(=O)Nc2ccc(Cl)cc2)c1 | 8 µg/mL (≈ 23.5 µM) | 100%
Cc1ccc(S(=O)(=O)NC(=O)NC2CCC(O)CC2)cc1 (configuration not stated) | > 20 µg/mL | 0%
CCOc1cccc(NC(=O)NS(=O)(=O)c2ccc(C)cc2)c1 | > 20 µg/mL | 6%
CCc1ccc(S(=O)(=O)NC(=O)Nc2ccc(Cl)cc2)cc1CC | 12.4 µg/mL (≈ 33.8 µM) | 46%
Cc1ccc(S(=O)(=O)NC(=O)Nc2ccc(Cl)cc2Cl)cc1 | > 20 µg/mL | 39%
O=C(Nc1ccc(Cl)c(Cl)c1)NS(=O)(=O)c1ccc2c(c1)CCC2 | 9.1 µg/mL (≈ 23.6 µM) | 97%
Cc1ccc(S(=O)(=O)NC(=O)Nc2ccc(S(N)(=O)=O)cc2)cc1 |  | 27%
Cc1ccc(S(=O)(=O)NC(=O)Nc2cc(Cl)cc(Cl)c2)cc1 | > 20 µg/mL | 21%
Cc1ccc(S(=O)(=O)NC(=O)Nc2ccc(Br)c(C)c2)cc1 | 7.3 µg/mL (≈ 19 µM) | 81%

SMILES | IC50 (CCRF-CEM) | inhibition in vivo at 300 mg/kg [1]
CCCCOC(=O)c1ccc(NC(=O)NS(=O)(=O)c2ccc(C)cc2)cc1 | > 20 µg/mL | 0%
O=C(NCCc1ccccc1)NS(=O)(=O)c1ccc2ccccc2c1 | > 20 µg/mL | 0%
O=C(Nc1ccc(Cl)cc1)NS(=O)(=O)c1ccc2c(c1)OCO2 | 9.1 µg/mL (≈ 25.7 µM) | 100%
CCOC(=O)c1ccc(NC(=O)NS(=O)(=O)c2ccc(C)cc2)cc1 | > 20 µg/mL | 12%
CC(=O)Nc1ccc(S(=O)(=O)NC(=O)Nc2ccc(C(F)(F)F)cc2)cc1 | > 20 µg/mL | 22%
O=C(Nc1ccc(Cl)cc1)NS(=O)(=O)c1ccc2c(c1)CCCC2 | 14.6 µg/mL (≈ 40 µM) | 70%
Cc1ccc(S(=O)(=O)NC(=O)Nc2ccc3c(c2)OCO3)cc1 | > 20 µg/mL | 54%
Cc1ccc(S(=O)(=O)NC(=O)Nc2nc(C)cc(C)n2)cc1 | > 20 µg/mL | 0%
Cc1ccc(S(=O)(=O)NC(=O)Nc2ccc(-c3ccccc3)cc2)cc1 | > 20 µg/mL | 0%
Cc1ccc(S(=O)(=O)NC(=O)Nc2ccc(OCc3ccccc3)cc2)cc1 | > 20 µg/mL | 0%
Cc1ccc(S(=O)(=O)NC(=O)Nc2cccc(Cl)c2)cc1 | > 20 µg/mL | 13%
Cc1ccc(S(=O)(=O)N(C)C(=O)Nc2ccc(Cl)cc2)cc1 | > 20 µg/mL | 17%
Cc1ccc(S(=O)(=O)NC(=O)Nc2cnccn2)cc1 | > 20 µg/mL | 0%
Cc1ccc(S(=O)(=O)NC(=O)Nc2c(F)c(F)cc(F)c2F)cc1 | > 20 µg/mL | 0%
O=C(NCCc1ccccc1)NS(=O)(=O)c1ccc2c(c1)CCC2 | > 20 µg/mL | 0%
Cc1ccc(S(=O)(=O)NC(=O)Nc2nc(Cl)cc(Cl)n2)cc1 | > 20 µg/mL | 0%
Cc1ccc(S(=O)(=O)NC(=O)Nc2ccc(CC#N)cc2)cc1 | > 20 µg/mL | 10%
Cc1ccc(S(=O)(=O)NC(=O)Nc2nc[nH]n2)cc1 | > 20 µg/mL | 0%
COc1cc(Cl)c(Cl)cc1NC(=O)NS(=O)(=O)c1ccc(C)cc1 | > 20 µg/mL | 3%
Cc1ccc(S(=O)(=O)NC(=O)Nc2ccc(OC(F)F)cc2)cc1 |  | 15%
